According to patent US20100041612A1, “Fragments of the Glucagon-Like Peptide-1 and Uses Thereof” (priority 2005, published 2010):
Square brackets hold non-standard residues; d marks the D form. Peptide text beside a SMILES is read from it. Bip = N[C@@H](Cc1ccc(-c2ccccc2)cc1)C(=O)O

What was measured:
[1] = molecular target: wild-type human GLP-1 receptor (Homo sapiens, UniProt P43220); assay: Peptide induced cAMP production (radioimmunoassay) in COS-7 cells transfected with wild-type GLP-1 receptor
Chain of wild-type human GLP-1 receptor (P43220 24-463): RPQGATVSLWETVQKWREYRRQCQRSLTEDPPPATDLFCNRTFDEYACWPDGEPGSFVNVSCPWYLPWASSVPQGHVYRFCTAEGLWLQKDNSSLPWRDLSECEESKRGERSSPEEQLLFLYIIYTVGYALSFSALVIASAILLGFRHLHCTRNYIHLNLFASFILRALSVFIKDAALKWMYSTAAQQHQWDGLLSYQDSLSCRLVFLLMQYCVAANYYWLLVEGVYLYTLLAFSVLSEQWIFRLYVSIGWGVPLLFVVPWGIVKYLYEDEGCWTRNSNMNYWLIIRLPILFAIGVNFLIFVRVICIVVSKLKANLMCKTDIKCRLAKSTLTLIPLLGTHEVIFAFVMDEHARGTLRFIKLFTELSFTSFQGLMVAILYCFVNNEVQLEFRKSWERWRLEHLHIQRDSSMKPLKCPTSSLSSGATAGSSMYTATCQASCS
Procedure: COS-7 cells were transiently transfected with cDNA encoding the wild-type human GLP-1 receptor. Peptide induced cAMP production was measured by radioimmunoassay.

[2] = tested on: hyperactive human GLP-1 receptor variant; assay: Peptide induced cAMP production (radioimmunoassay) in COS-7 cells transfected with hyperactive GLP-1 receptor variant; assay type: cell-based; settings: for EC50: COS-7 cells, hyperactive human GLP-1 receptor variant
Source text: The same peptides were used as described above, with the underivatized GLP-1 (7-20) amide represented in FIG. 1B with closed squares (“−bpa”) and the GLP-1 (7-20) carboxy-terminal tethered with a small molecule, biphenylalanine, represented by open squares (“+bpa”).

[3] = tested on: Zucker diabetic fatty (ZDF) rats; assay: Preclinical trial protocol in Zucker diabetic fatty (ZDF) rats: blood glucose and islet cell mass; assay type: in vivo, rat; settings: versus saline; for blood glucose levels: 1 μg/kg/day to 100 mg/kg/day; for islet cell mass in pancreases: histology
Procedure: In this example, qualified animal models for diabetes are employed to examine the dose ranges of GLP-1 (7-20).
Treatment with GLP-1 (7-20) Animal Model. Zucker diabetic fatty (ZDF) rats are a well characterized type 2 diabetes animal model. (Suh Y H, et al. J Mol. Endocrinol. 2005 April; 34(2):299-315.)
Doses of GLP-1 (7-20) range from 1 μg/kg/day to 100 mg/kg/day.
Treatment. Cohorts are treated in 2 arms with 2-4 dose ranges of GLP-1 (7-20) amide and a placebo, at a compensated dose for animal size, metabolism and circulation. Arm 1: saline, Arm 2: GLP-1 (7-20) amide.
Study Assessment. Blood glucose levels are measured every week with a One Touch II glucose meter (Lifescan). Blood insulin levels are also measured. Rats are considered diabetic after 2 consecutive blood glucose measurements over 300 mg/dl. For histological analysis, pancreases are snap-frozen. Multiple 5-μm sections are stained with hematoxylin and eosin and scored blindly for islet cell mass as known in the art. […]
Animal Model. Zucker diabetic fatty (ZDF) rats are a well characterized type 2 diabetes animal model. (Suh Y H, et al. J Mol Endocrinol. 2005 April; 34(2):299-315.) […]
Treatment. Cohorts are treated in 6 arms with 2-4 dose ranges of each drug and a placebo, at a compensated dose for animal size, metabolism and circulation. Arm 1: saline, Arm 2: GLP-1 (7-20)−bpa; Arm 3: GLP-1 (7-20)+bpa; Arm 4: GLP-1 (7-20)−bpa plus pravastatin; Arm 5: GLP-1 (7-20)+bpa plus pravastatin; Arm 6: GLP-1 (7-20)−bpa plus GLP-1 (7-20)+bpa plus pravastatin.
Study Assessment. Blood glucose levels are measured every week with a One Touch II glucose meter (Lifescan). Blood insulin levels are also measured. Rats are considered diabetic after 2 consecutive measurements over 300 mg/dl. For histological analysis, pancreases are snap-frozen. Multiple 5-μm sections are stained with hematoxylin and eosin and scored blindly for islet cell mass as known in the art.

| Compound | affinity for the GLP-1 receptor compared with full length GLP-1 ([1]; statement referring to Example 1) | EC50 [2] | potency increase compared to the function of this peptide at the wild type receptor ([2]; hyperactive versus wild type receptor) | blood glucose levels [3] | islet cell mass in pancreases [3] | potency increase by carboxy-terminal tethering of biphenylalanine ([1]; versus underivatized GLP-1 (7-20) amide, wild-type receptor) | higher potency than GLP-1 (7-20) amide -bpa at the hyperactive receptor ([2]; hyperactive receptor, +bpa versus -bpa) |
| --- | --- | --- | --- | --- | --- | --- | --- |
| CC(C)C[C@H](NC(=O)[C@H](Cc1ccc(O)cc1)NC(=O)[C@H](CO)NC(=O)[C@H](CO)NC(=O)[C@@H](NC(=O)[C@H](CC(=O)O)NC(=O)[C@H](CO)NC(=O)[C@@H](NC(=O)[C@H](Cc1ccccc1)NC(=O)[C@@H](NC(=O)CNC(=O)[C@H](CCC(=O)O)NC(=O)[C@H](C)NC(=O)[C@@H](N)Cc1c[nH]cn1)[C@@H](C)O)[C@@H](C)O)C(C)C)C(N)=O [GLP-1 (7-20) amide] (H-HAEGTFTSDVSSYL-NH2; N-terminus assumed) | lower affinity than full length GLP-1 | 24 µM | 10 fold | pronounced reduction | increased |  |  |
| CC(C)C[C@H](NC(=O)[C@H](Cc1ccc(O)cc1)NC(=O)[C@H](CO)NC(=O)[C@H](CO)NC(=O)[C@@H](NC(=O)[C@H](CC(=O)O)NC(=O)[C@H](CO)NC(=O)[C@@H](NC(=O)[C@H](Cc1ccccc1)NC(=O)[C@@H](NC(=O)CNC(=O)[C@H](CCC(=O)O)NC(=O)[C@H](C)NC(=O)[C@@H](N)Cc1c[nH]cn1)[C@@H](C)O)[C@@H](C)O)C(C)C)C(=O)N[C@@H](Cc1ccc(-c2ccccc2)cc1)C(N)=O [GLP-1 (7-20)+bpa] (H-HAEGTFTSDVSSYL[Bip]-NH2; N-terminus and C-terminus assumed) |  | 2 µM |  | pronounced reduction | increased | 22 fold | 10 fold |
